Data published in paper PMC6026870, “Selective induction of cancer cell death by VDAC1‐based peptides and their potential use in cancer therapy” (Molecular Oncology, 2018).

How the values were obtained:
HK‐I = target: T1, HK‐I (Homo sapiens, UniProt P19367); assay: HK activity assay with purified recombinant HK‐I; format: biochemical; conditions: HK‐I 13 µg/ml pre‐incubated with peptide; 1 mM ATP, G6PDH‐coupled, absorbance at 340 nm (Fig. S3B)
T1 construct: His; made in house; host or cells: Escherichia coli BL21
T1 sequence (P19367 1-917): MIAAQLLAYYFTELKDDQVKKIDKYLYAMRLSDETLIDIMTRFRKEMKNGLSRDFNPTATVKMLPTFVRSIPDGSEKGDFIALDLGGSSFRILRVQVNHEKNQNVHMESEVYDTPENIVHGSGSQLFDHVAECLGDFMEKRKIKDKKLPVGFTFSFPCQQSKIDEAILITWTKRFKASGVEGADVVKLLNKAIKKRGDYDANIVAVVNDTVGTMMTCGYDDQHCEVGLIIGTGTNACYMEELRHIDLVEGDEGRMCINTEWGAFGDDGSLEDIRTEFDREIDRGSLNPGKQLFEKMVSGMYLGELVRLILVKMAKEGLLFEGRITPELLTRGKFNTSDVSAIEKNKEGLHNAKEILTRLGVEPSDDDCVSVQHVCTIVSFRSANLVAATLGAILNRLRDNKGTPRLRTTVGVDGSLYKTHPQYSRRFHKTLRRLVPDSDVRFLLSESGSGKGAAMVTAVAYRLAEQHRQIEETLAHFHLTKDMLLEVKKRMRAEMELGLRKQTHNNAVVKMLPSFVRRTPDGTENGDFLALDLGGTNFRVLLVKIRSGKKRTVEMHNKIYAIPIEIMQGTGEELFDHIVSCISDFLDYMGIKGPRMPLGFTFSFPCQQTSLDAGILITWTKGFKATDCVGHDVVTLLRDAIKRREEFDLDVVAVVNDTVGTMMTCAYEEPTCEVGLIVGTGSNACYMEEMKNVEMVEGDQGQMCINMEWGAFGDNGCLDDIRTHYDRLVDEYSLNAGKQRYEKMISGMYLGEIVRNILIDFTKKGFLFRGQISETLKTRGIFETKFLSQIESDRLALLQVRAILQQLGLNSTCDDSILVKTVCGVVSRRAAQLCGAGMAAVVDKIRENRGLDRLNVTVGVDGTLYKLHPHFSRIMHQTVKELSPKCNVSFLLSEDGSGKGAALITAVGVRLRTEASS
Experimental: Human HK‐I and HK‐II were cloned into plasmid pET‐His DNA and expressed in Escherichia coli BL21 upon IPTG induction. HK was purified from lysed cells using a HiTrap nickel column (GE Healthcare). Following dialysis, the imidazole‐eluted protein was further purified using a Blue HiTrap column (GE Healthcare). HK was eluted using 10 mM glucose, 20 mM Tris/HCl (pH 8.5), 20% glycerol, and 1.5 mM glucose‐6‐phosphate. Fractions were analyzed by SDS/PAGE and tested for HK activity. The purified active fractions were combined and stored in aliquots at −80 °C.
Change in absorbance at 340 nm (NADH production) was spectrophotometrically measured following addition of 1 mM ATP and 0.05 unit·mL^−1 glucose‐6‐phosphate dehydrogenase.
Purified HK-I (13 µg/ml) was pre-incubated with the indicated concentrations of Tf-D-LP4 (●) or R-Tf-D-LP4 (○) and assayed for HK activity as described in Materials and Methods. Change in absorbance at 340 nm (NADH production) was spectrophotometrically measured following addition of 1 mM ATP, and 0.05 unit/ml glucose-6-phosphate dehydrogenase. C. Tf-D-LP4 and R-Tf-D-LP4 solubility. The peptides were dissolved to a final concentration of 5 mM in 5% DMSO and diluted to 1.1 mM in HBSS. Peptide absorbance in the supernatant was measured at 280 nm following centrifugation at 12,000g before and after 75 min incubation at 24 °C. […] Cell death was analyzed using PI and FACS analysis. […]

[1] = test system: A549, MDA‐MB‐231 and U‐87MG xenografts; assay: TUNEL assay on xenograft tumor sections; format: in vivo, mouse; conditions: TUNEL staining of paraffin sections; no TUNEL‐positive cells in control HBSS‐TTs (Fig. 7A–C)
Experimental: U‐87MG cells (3 × 10^6/mouse), A549 cells (5 × 10^6/mouse), or MDA‐MB‐231 cells (3 × 10^6/mouse) were inoculated subcutaneously (s.c.) into the hind leg flanks of athymic 8‐week‐old male nude mice (Envigo, Huntingdon, UK). Tumor size was measured using a digital caliper and volume was calculated, and when reached 50–100 mm^3 for each tumor type, mice were randomly divided into two groups (five mice per group). […] The xenografts were injected (two points, 20 μL per tumor) every two days. Beginning on the day of inoculation, mouse weight and tumor volume were monitored twice a week. Experiments were terminated after 14, 29, or 20 days for U‐87MG‐, MDA‐MB‐231‐, or A549‐based tumors, respectively. The mice were sacrificed and tumors were excised. Half of each tumor was fixed in 4% buffered formaldehyde, paraffin‐embedded, and processed for IHC, while the second half was frozen in liquid nitrogen for immunoblotting and qPCR analyses. These experimental protocols were approved by the Institutional Animal Care and Use Committee of Ben‐Gurion University.
Paraffin‐embedded‐fixed tumor sections were processed for a TUNEL assay using the DeadEnd Fluorometric TUNEL system according to the manufacturer's instructions. […]

HeLa cells = assay: Cellular ATP levels, luciferase‐based assay (CellTiter‐Glo); format: cell-based, human; conditions: 3 h, percentage of control, mean ± SE (n = 3) (Fig. 4F)
Experimental: Cellular ATP levels were estimated using a luciferase‐based assay (CellTiter‐Glo; Promega). […] ATP levels were assayed according to the manufacturer's protocol, and luminescence was recorded using an Infinite M1000 plate reader (Tecan, Männedorf, Switzerland).

CC[C@H](C)[C@H](NC(=O)[C@H](Cc1ccc(O)cc1)NC(=O)[C@@H]1CCCN1C(=O)[C@H](CCCNC(=N)N)NC(=O)[C@H](Cc1c[nH]cn1)NC(=O)[C@@H](CO)NC(=O)[C@@H](Cc1c[nH]c2ccccc12)NC(=O)[C@H](NC(=O)[C@@H](Cc1c[nH]c2ccccc12)NC(=O)[C@@H](CCC(=O)O)NC(=O)[C@@H](CCCCN)NC(=O)[C@@H](CCCCN)NC(=O)[C@@H](CC(C)C)NC(=O)[C@@H](CCC(=O)O)NC(=O)[C@H](NC(=O)[C@@H](C)NC(=O)[C@H](NC(=O)[C@@H](CC(N)=O)NC(=O)[C@@H](CC(C)C)NC(=O)[C@@H](C)NC(=O)[C@@H](Cc1c[nH]c2ccccc12)NC(=O)[C@H](NC(=O)[C@@H](C)NC(=O)CNC(=O)[C@@H](CC(N)=O)NC(=O)[C@@H](CO)NC(=O)[C@@H](CC(N)=O)NC(=O)[C@@H](CCCCN)NC(=O)[C@@H](Cc1c[nH]c2ccccc12)NC(=O)[C@H](NC(=O)[C@@H](Cc1c[nH]c2ccccc12)NC(=O)[C@H](N)CCCCN)[C@H](C)O)[C@H](C)O)C(C)C)[C@H](C)O)[C@H](C)O)C(=O)N[C@@H](C)C(=O)N[C@@H](Cc1c[nH]cn1)C(=O)O [R‐Tf‐D‐LP4]
inhibition of purified HK‐I activity (HK‐I): inhibits HK-I activity | TUNEL‐positive cells in treated tumors [1]: the majority of the cells were TUNEL‐positive | decrease of cellular ATP levels (HeLa cells): about 40%
